Holding throughout (assay type): cell-based
The test system of one assay is Miapaca-2 cells. The assay is described as follows: MiaPaca-2 combination cell proliferation assay (1) with cobimetinib, 96-well. The settings on record: inhibition of cell proliferation, read-out: MiaPaca-2 Combo (1) IC50. As to the method: MiaPaca-2 Combination Cell proliferation Assay (1)
Miapaca-2 cells (catalog #CRL-1420) are obtained from the American Type Culture Collect (ATCC, Manassas, VA). Briefly, cells were grown in DMEM supplemented with 10% characterized fetal bovine serum (Invitrogen, Carlsbad, CA), 2.5% New Zealand sourced horse serum and 1% Penicillin/Streptomycin/L-Glutamine at 37° C., 5% CO2, and 95% humidity. Cells are expanded until reaching 70-95% confluency at which point they are subcultured or harvested for assay use. A serial dilution of test compound was dispensed into multiple 96-well black clear bottom plates in triplicate. A serial dilution of complete growth medium containing cobimetinib was prepared at twice the final concentration and 100 μL was dispensed across the test compound titration in triplicate. Three thousand cells are added per well in 100 μL complete growth medium in each 96-well plate. Plates are incubated for 67-72 hours at 37° C., 5% CO2, and 95% humidity. At the end of the incubation, 40 μL of a 440 μM solution of resazurin (Sigma, St. Louis, MO) in PBS is added to each well of the plate and plates are incubated for an additional 5-7 hours at 37° C., 5% CO2, and 95% humidity. Plates are read on a Synergy2 or equivalent reader (Biotek, Winooski VT) using an excitation of 540 nm and an emission of 600 nm. Drug synergy was assessed via BLISS analysis in the Combenefit software (Cancer Research UK Cambridge Institute, Cambridge, UK). Data is analyzed using Prism software (GraphPad, San Diego, CA) to calculate IC50 values. Shifts in test compound IC50 values are reported from top-constrained combination therapy curves.

A further assay deals with A375 cells. The assay is described as follows: A375 cell proliferation assay (2), resazurin, 384-well. The settings on record: Homo sapiens, A-375, inhibition of cell proliferation, 67-72 h. As to the method:
A375 Cell Proliferation Assay (2)
A375 cells (catalog (#CRL-1619) are obtained from the American Type Culture Collect (ATTC, Manassas, VA). Briefly, cells were grown in DMEM High Glucose supplemented with 10% characterized fetal bovine serum (Invitrogen, Carlsbad, CA) and 1% Penicillin/Streptomycin/L-Glutamine at 37° C., 5% CO2, and 95% humidity. Cells are expanded until reaching 70-95% confluency at which point they are sub-cultured or harvested for assay use. Using the Beckman Coulter Echo 650, a serial dilution of test compound is dispensed into a 384-well black clear bottom plate in triplicate. Six hundred twenty-five cells are added per well in 50 μL complete growth medium in the 384-well plate. Plates are incubated for 67-72 h at 37° C., 5% CO2, and 95% humidity. At the end of the incubation, 10 μL of a 440 μM solution of resazurin (Sigma, St. Louis, MO) in PBS is added to each well of the plate and plates are incubated for an additional 3-6 h at 37° C., 5% CO2, and 95% humidity. Plates are read on a Synergy2 or equivalent reader (Biotek, Winooski VT) using an excitation of 540 nm and an emission of 600 nm. Data is analyzed using Prism software (GraphPad, San Diego, CA) to calculate IC50 values.

Another assay deals with H2405 cells. The assay is described as follows: H2405 cell proliferation assay (2), resazurin, 384-well. The settings on record: Homo sapiens, NCI-H2405, inhibition of cell proliferation, 67-72 h. Here is the method: H2405 Cell Proliferation Assay (2)
H2405 cells (catalog #CRL-5994) are obtained from the American Type Culture Collect (ATTC, Manassas, VA). Briefly, cells were grown in RPMI 1640 supplemented with 5% characterized fetal bovine serum (Invitrogen, Carlsbad, CA) and 1% Penicillin/Streptomycin/L-Glutamine at 37° C., 5% CO2, and 95% humidity. Cells are expanded until reaching 70-95% confluency at which point they are sub-cultured or harvested for assay use. A serial dilution of test compound is dispensed into a 384-well black clear bottom plate in triplicate. Seven hundred fifty cells are added per well in 50 μL complete growth medium in the 384-well plate. Plates are incubated for 67-72 h at 37° C., 5% CO2, and 95% humidity. At the end of the incubation, 10 μL of a 440 μM solution of resazurin (Sigma, St. Louis, MO) in PBS is added to each well of the plate and plates are incubated for an additional 5-6 h at 37° C., 5% CO2, and 95% humidity. Plates are read on a Synergy2 or equivalent reader (Biotek, Winooski VT) using an excitation of 540 nm and an emission of 600 nm. Data is analyzed using Prism software (GraphPad, San Diego, CA) to calculate IC50 values
A general note: Alamar Blue is a resazurin reagent that responds to reducing activity.

The test system of the next assay is WM3629 cells. In words: WM3629 cell proliferation assay (1), resazurin, 96-well. The settings on record: inhibition of cell proliferation. Here is the method: WM3629 Cell Proliferation Assay (1)
WM3629 cells (#WM3629-01-0001) are obtained from Rockland Immunochemicals Inc (Gilbertsville, PA). Briefly, cells were grown in MCDB 153 medium (Sigma, #M7403, St. Louis, MO) supplemented with 20% Leibovitz's L-15 (ThermoFisher #11415-064, Waltham, MA), 2% heat inactivated fetal bovine serum (ThermoFisher, #A3840001, Waltham, MA), 5 μg/mL Insulin (Bovine Pancreas) (Sigma, #I0516, St. Louis, MO), 1.68 mM Calcium Chloride (Sigma, #C-34006, St. Louis, MO) and 1% Penicillin/Streptomycin/L-Glutamine (ThermoFisher #10378016, Waltham, MA) at 37° C., 5% CO2, and 95% humidity. Cells are expanded until reaching 70-95% confluency at which point they are subcultured or harvested for assay use. A serial dilution of test compound is dispensed into a 96-well black clear bottom plate in triplicate. Four thousand five hundred cells are added per well in 200 μL complete growth medium in the 96-well plate. Plates are incubated for 67-72 hours at 37° C., 5% CO2, and 95% humidity. At the end of the incubation, 40 μL of a 440 μM solution of resazurin (Sigma, #199303, St. Louis, MO) in PBS is added to each well of the plate and plates are incubated for an additional 6-7 hours at 37° C., 5% CO2, and 95% humidity. Plates are read on a Synergy2 or equivalent reader (Biotek, Winooski VT) using an excitation of 540 nm and an emission of 600 nm. Data is analyzed using Prism software (GraphPad, San Diego, CA) to calculate IC50 values.

pIC50: −log10 of the molar value.

In general, pIC50 refers to the negative decadic logarithm of the IC50, by convention in mol/L.

Turning to `CC(=O)Nc1cc(-c2cc(-c3cc(NC(=O)NC4CCC(F)(F)CC4)c(F)cc3C)cc(OCCO)n2)ccn1` [Example 63], the pIC50 in the assay on Miapaca-2 cells is not below 7.00.

`Cc1ccc(NC(=O)N2CC[C@H](C(F)(F)F)C2)cc1-c1cncc(-c2cc(NC(=O)C3CC3)ncn2)c1` [Example 195]: the pIC50 was 6.30 to 7.00 with A375 cells and not below 7.00 in the assay on H2405 cells.

`Cc1ccc(NC(=O)N2CC[C@@H](C(F)(F)F)C2)cc1-c1cccc(-c2cc(NC(=O)C3CC3)ncn2)c1` [Example 201]: the pIC50 with Miapaca-2 cells is 6.30 to 7.00; with WM3629 cells, not below 7.00.

Consider `Cc1cc(F)c(NC(=O)NCCC2(C)CC2)cc1-c1cc(OCCO)nc(-c2ccnc(NC(=O)C3CC3)c2)c1` [Example 76], for which the pIC50 with Miapaca-2 cells is 6.30 to 7.00.

Regarding `Cc1cc(F)c(NC(=O)N2CC[C@H](C(F)(F)F)C2)cc1-c1cncc(-c2cc(NC(=O)C3CC3)ncn2)c1` [Example 216], the pIC50 with A375 cells is 6.30 to 7.00; with H2405 cells, not below 7.00.

As to `CC(=O)Nc1cc(-c2cc(-c3cc(NC(=O)NCCC4(C)CC4)c(F)cc3C)cc(C)n2)ccn1` [Example 55], the pIC50 in the assay with Miapaca-2 cells was not below 7.00.

For the compound `Cc1cc(F)c(NC(=O)NCCC2(C(F)(F)F)CC2)cc1-c1cc(OCCO)nc(C2CCOCC2)c1` [Example 24], the pIC50 in the assay on Miapaca-2 cells was not below 7.00.

Take `Cc1ccc(NC(=O)N2CC[C@H](C(F)(F)F)C2)cc1-c1cccc(-c2cc(NC(=O)C3CC3)ncn2)c1` [Example 200]: the results for the pIC50 in the assay with Miapaca-2 cells and with WM3629 cells were 6.30 to 7.00 and not below 7.00, respectively.

On to `Cc1ccc(NC(=O)N2CC[C@H](C(C)C)C2)cc1-c1cncc(-c2cc(NC(=O)C3CC3)ncn2)c1` [Example 221], for which, in the assay with WM3629 cells, the pIC50 was not below 7.00.

As to `CC(=O)Nc1cc(-c2cc(-c3cc(NC(=O)NCCC4(C)CC4)c(F)cc3C)cc(OCCO)n2)ccn1` [Example 33], the pIC50 in the assay on Miapaca-2 cells was not below 7.00.

With `Cc1ccc(NC(=O)N2CC[C@@H](C(C)C)C2)cc1-c1cncc(-c2cc(NC(=O)C3CC3)ncn2)c1` [Example 217], the pIC50 with WM3629 cells was not below 7.00.
